Measurements taken from patent US5641774A, “Compounds useful as antiproliferative agents and garft inhibitors” (Agouron Pharmaceuticals, Inc., priority 1995, dated 1997).

Legend:
[1] = tested on: GARFT; conditions: Muggia, New Drugs, Concepts and Results in Cancer Chemotherapy, 1992; cited from earlier work
[2] = tested on: CCRF-CEM; experiment: In vitro growth inhibition of CCRF-CEM cells, Example 2 (MTT); format: cell-based; conditions: Homo sapiens, continuous exposure (title: 72-hour; method: 5 days), mean IC50, read-out: IC50 Cell Culture CCRF-CEM
Description: All cultures were maintained at 37° C. 5% air-CO2 in a humidified incubator.
Stock solutions of the inhibitors were prepared in 10 mM sodium bicarbonate in water and stored in i ml aliquots at -20° C. for cell culture experiments. Cell growth inhibition was measured by a modification of the method of Mosmann, J. Immunol. Methods 65 (1983), 55-63.
Mid-log phase cells of each cell line were diluted to 18,500 cells/ml in fresh RPMI growth medium (Mediatech, Washington, D.C.) supplemented with dialyzed fetal calf serum (Hyclone Laboratories Inc., Logan, Utah) and then aliquotted into columns 2 through 12 of 96-well microtiter plates. Column 1 was filled with the same volume ([…]) of fresh medium, without cells, for use as a blank. The plates were then placed in a 37° C., 5% air-CO2 incubator. After 1 to 4 hours, plates were removed from the incubator followed by addition of Compound (21) at 10× final concentration, […] in binary dilutions, to columns 12 to 4. […] The extent of metabolized MTT was measured spectrophotometrically at 540 nm on a Molecular Devices Vmax™ kinetic microplate reader. The concentration of drug required to reduce cell growth by 50% as measured by MTT metabolism was determined by interpolation between the O.D. (minus blank) immediately above and below 50% of control O.D. (minus blank). […]

[3] = tested on: 6C3HED lymphosarcoma; experiment: In vivo antitumor activity, 6C3HED lymphosarcoma implanted subcutaneously in C3H/He female mice
Description: On day zero, 2 mm^2 trocar fragments of 6C3HED lymphosarcoma were implanted subcutaneously in the axillary region into groups of six C3H/He female mice. Starting on day 1, the test compound was administered intraperitoneally in 40% Encapsin given once daily for nine days. Control animals received identical treatment without test compound. The percentage inhibition given in Table 5 below was calculated by comparing the mass of the control tumors (receiving diluent only) on day 11 to those of animals receiving test compound.

[4] = tested on: C3H/BA mammary adenocarcinoma; experiment: In vivo antitumor activity, C3H/BA mammary adenocarcinoma implanted subcutaneously in C3H/He female mice; conditions: day 14
Description: On day zero, 2 mm^2 trocar fragments of C3H/BA mammary adenocarcinoma were implanted subcutaneously in the axillary region into groups of six C3H/He female mice. Starting on day 1, the test compound was administered intraperitoneally in 40% Encapsin given once daily for nine days. Control animals received identical treatment without test compound. The percentage of inhibition was calculated by comparing the mass of the control tumors (receiving diluent only) on day 14 to those of animals receiving test compound.

SMILES	GARFT inhibition and antitumor activity (literature) [1]	IC50 [2] [nM]	% Inhibition (tumor mass) ([3]; 12.5 mg/kg i.p. once daily for nine days, day 11) [%]	% Inhibition (tumor mass) ([3]; 25 mg/kg i.p. once daily for nine days, day 11) [%]	% Inhibition (tumor mass) ([3]; 50 mg/kg i.p. once daily for nine days, printed as a word in the % Inhibition column)	% Inhibition (tumor mass) ([4]; 5 mg/kg i.p. once daily for nine days) [%]	% Inhibition (tumor mass) ([4]; 10 mg/kg i.p. once daily for nine days) [%]	% Inhibition (tumor mass) ([4]; 20 mg/kg i.p. once daily for nine days) [%]
Nc1nc2c(c(=O)[nH]1)CC(CCc1ccc(C(=O)N[C@@H](CCC(=O)O)C(=O)O)cc1)CN2 (some centres unmarked) [5,10-dideazatetrahydrofolic acid]	specific tight binding inhibitor of GARFT, 5,10-dideazatetrahydrofolic acid, has been reported to show antitumor activity	–	–	–	–	–	–	–
Nc1nc2c(c(=O)[nH]1)SC(CCc1ccc(C(=O)N[C@@H](CCC(=O)O)C(=O)O)s1)CN2 (stereo partly drawn) [Compound 21, 4-[2-(2-Amino-4-oxo-4,6,7,8-tetrahydro-3H-pyrimido[5,4-6][1,4]thiazin-6-yl)-ethyl]-2,5-thienoylamino-L-glutamic acid]	–	4.3	100	100	toxic	16	84	100
